{"source": "patent US12121521B2", "about": "“Uses of salt-inducible kinase (SIK) inhibitors for treating osteoporosis” (The General Hospital Corporation, priority 2016, dated 2024)", "key": {"[1]": {"biological_target": "T1, MKNK1 (Homo sapiens, UniProt Q9BUB5)", "T1 construct": "T7 phage fusion (most kinases) or DNA tag for qPCR (kinases made in HEK-293); purchased DiscoverX; host or cells: E. coli BL21-derived host (T7 phage) or HEK-293", "assay": "ScanEDGE kinase panel (DiscoverX)", "assay_type": "binding", "conditions": "read-out: % of control activity at 71 nM", "procedure,_shortened": "(§1)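 Active-site competition binding panel: kinases expressed as T7 phage fusions in BL21-derived E. coli or produced in HEK-293 cells with DNA tags. Compounds compete with bead-immobilized ligand, and the kinase retained on beads is quantified by qPCR of eluates.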"}, "[2]": {"biological_target": "T2, TYK2 (Homo sapiens, UniProt P29597)", "T2 construct": "T7 phage fusion (most kinases) or DNA tag after HEK-293 expression; purchased DiscoverX (Fremont, CA), ScanEDGE; host or cells: T7 phage in E. coli BL21-derived host, or HEK-293", "T2 sequence (P29597 888-1187 limits assumed)": "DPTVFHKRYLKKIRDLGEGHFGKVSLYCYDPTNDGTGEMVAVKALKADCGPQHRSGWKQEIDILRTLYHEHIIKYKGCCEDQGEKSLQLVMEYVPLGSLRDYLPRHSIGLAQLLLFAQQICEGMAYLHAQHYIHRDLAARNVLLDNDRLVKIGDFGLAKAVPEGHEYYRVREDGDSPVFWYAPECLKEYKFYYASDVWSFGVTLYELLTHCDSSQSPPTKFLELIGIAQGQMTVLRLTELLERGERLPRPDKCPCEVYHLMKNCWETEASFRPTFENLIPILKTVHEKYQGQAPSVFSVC", "assay": "ScanEDGE kinase panel (DiscoverX)", "assay_type": "binding", "conditions": "read-out: % of control activity at 71 nM", "procedure,_shortened": "as §1"}, "[3]": {"biological_target": "T3, IKK-alpha (Homo sapiens, UniProt O15111)", "T3 construct": "T7 phage fusion (most kinases) or DNA tag for qPCR (HEK-293-made kinases); purchased DiscoverX; host or cells: E. coli BL21-derived host (T7 phage) or HEK-293", "assay": "ScanEDGE kinase panel (DiscoverX)", "assay_type": "binding", "conditions": "read-out: % of control activity at 71 nM", "procedure,_shortened": "as §1"}, "[4]": {"biological_target": "T4, p38-beta (Homo sapiens, UniProt Q15759)", "T4 construct": "T7 phage fusion (most kinases) or DNA tag for qPCR (kinases made in HEK-293); purchased DiscoverX; host or cells: E. coli BL21-derived host (T7 phage) or HEK-293", "assay": "ScanEDGE kinase panel (DiscoverX)", "assay_type": "binding", "conditions": "read-out: % of control activity at 71 nM", "procedure,_shortened": "as §1"}, "[5]": {"biological_target": "T5, IKK-beta (Homo sapiens, UniProt O14920)", "T5 construct": "T7 phage fusion (most kinases) or DNA tag for qPCR (HEK-293-made kinases); purchased DiscoverX; host or cells: E. coli BL21-derived host (T7 phage) or HEK-293", "assay": "ScanEDGE kinase panel (DiscoverX)", "assay_type": "binding", "conditions": "read-out: % of control activity at 71 nM", "procedure,_shortened": "as §1"}, "[6]": {"test_system": "male mice", "assay": "Acute YKL-05-099 administration: bone gene expression", "assay_type": "in vivo, mouse", "conditions": "single I.P. dose 20 μmol/kg, 2 hours", "experimental": "Whole cell extracts were generated, followed by immunoblotting. […] RNA was prepared, and gene expression analyzed by RT-qPCR. […] 2 hours later, animals were sacrificed, RNA was prepared from femurs, and gene expression analyzed by RT-qPCR. […] Animals were sacrificed 2 hours after the final dose, and RNA from femurs analyzed for the indicated genes. BGLAP encodes osteocalcin. * indicated p<0.01 versus vehicle, # indicates p<0.05 versus vehicle. (FIGS. 8E to 8K), static and dynamic histomorphometry were performed on the tibia from the same mice as in FIG. 8D. Each data point represents an individual mouse, p values for each difference are shown on the graph. (FIG. 8L) Representative photomicrograph showing increased osteoblasts on cancellous bone surfaces from YKL-05-099-treated mice.\nAll animals were housed in the Center for Comparative Medicine at the Massachusetts General Hospital, and all experiments were approved by the hospital's Subcommittee on Research Animal Care. HDAC5-null mice (70) and HDAC4 f/f mice (71) were generously provided by Dr. Eric Olson (University of Texas Southwestern Medical Center, Dallas, TX) and were backcrossed to C57B/6 mice for at least 6 generations. […] In all instances, skeletal phenotypes were evaluated in 8 week-old sex-matched littermates. […]"}}}
{"smiles": "COc1ccc(N2C(=O)N(c3c(C)cccc3C)Cc3cnc(Nc4ccc(C5CCN(C)CC5)c(OC)c4)nc32)c(OC)c1", "note": "[YKL-05-093]", "values": [{"measurement": "remaining binding at 0.071 µM", "setting": "[1]", "result": 76, "unit": "%"}, {"measurement": "remaining binding at 0.071 µM", "setting": "[2]", "result": 49, "unit": "%"}, {"measurement": "remaining binding at 0.071 µM", "setting": "[3]", "result": 93, "unit": "%"}, {"measurement": "remaining binding at 0.071 µM", "setting": "[4]", "result": 47, "unit": "%"}, {"measurement": "remaining binding at 0.071 µM", "setting": "[5]", "result": 84, "unit": "%"}]}
{"smiles": "COc1ccc(N2C(=O)N(c3c(C)cccc3Cl)Cc3cnc(Nc4ccc(C5CCN(C)CC5)cc4OC)nc32)nc1", "note": "[YKL-05-099]", "values": [{"measurement": "RANKL in bone RNA", "setting": "[6]", "result": "RANKL up-regulation"}, {"measurement": "SOST in bone RNA", "setting": "[6]", "result": "SOST down-regulation"}]}
